According to BindingDB's records for doi:10.7270/Q24M9315 (The Scripps Research Institute Molecular Screening Center, 2011):

What follows are molecules tested against T1, Caspase-3 (Homo sapiens, UniProt P42574) (assay: activators of human procaspase-3 D3A mutant – biochemical, absorbance, PC-3 D3A mutant, counter-screen for dual procaspase-3/7 activator project, dose response (AID 504328)).
T1 sequence (P42574 whole entry): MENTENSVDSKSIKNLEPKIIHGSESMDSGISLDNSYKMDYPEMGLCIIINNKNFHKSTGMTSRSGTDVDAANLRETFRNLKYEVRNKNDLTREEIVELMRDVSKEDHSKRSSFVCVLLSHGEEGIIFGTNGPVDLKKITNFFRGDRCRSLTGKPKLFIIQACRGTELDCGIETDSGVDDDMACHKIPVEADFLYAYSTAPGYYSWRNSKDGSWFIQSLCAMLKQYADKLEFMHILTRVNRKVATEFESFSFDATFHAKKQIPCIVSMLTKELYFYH

Structure (SMILES) | EC50 [µM]
COc1ccccc1-n1c(O)c2n(-c3ccccc3)[nH]c(C(=O)c3ccccc3)c-2c1=O | > 85.3
COC(=O)c1[nH]n(-c2ccc(Cl)cc2)c2c(O)n(-c3ccccc3OC)c(=O)c1-2 [1-(4-Chloro-phenyl)-5-(2-methoxy-phenyl)-4,6-dioxo-1,3a,4,5,6,6a-hexahydro-pyrrolo[3,4-c]pyrazole-3-carboxylic acid methyl ester] | > 85.3
O=C(c1ccccc1)c1[nH]n(-c2ccccc2)c2c(O)n(-c3ccccc3)c(=O)c1-2 [3-benzoyl-1,5-diphenyl-3a,6a-dihydropyrrolo[3,4-c]pyrazole-4,6-dione] | > 85.3
CCOC(=O)C(C#N)C=Nc1cc(OC)ccc1OC (configuration not stated) [(E)-2-Cyano-3-(2,5-dimethoxy-phenylamino)-acrylic acid ethyl ester] | > 85.3

Results, then the molecule that gave them:

EC50 [µM] | Structure (SMILES)
> 85.3 | C=CC=Nc1c(Cl)c(O)n(-c2cccc(Cl)c2Cl)c1O [MLS000533809]
23.1 | Cc1[nH]nc2c1C(c1c[nH]c3ccccc13)C(C#N)C(=N)O2 (configuration not stated) [MLS001030009]
> 85.3 | CCOc1ccc(NC=C2C(=O)CC(c3ccco3)CC2=O)cc1 (configuration not stated) [SMR000268302]
